From patent US20130273207A1, “Calcium Fortifying Composition for Strength, a Hydration Supplement, and Process for Preparing the Same” (priority 2010, published 2013)
Where two headings read alike, the source gives them in different places.

What was measured:
[1] = Calcium available to human body (bioavailability) from Ca products; conditions: consumption 1000 mg of product
Excerpt: Bioavailability of Calcium Lactate Gluconate: the effectiveness of the nutrient depends on its bioavailability, which means how well the human body absorbs and utilizes it for various functions occurring in the body. On an average, about 10 to 30% of the total calcium is only get absorbed from a mixed diet by healthy adults. Many different factors influence this level of availability, one being the type of salt providing calcium. […] Calcium Lactate Gluconate is primarily used in applications where solubility and clarity are important.

[2] = cited from earlier work
[3] = cited from earlier work; for % bioavailability of Ca out of inorganic Ca: consumption 1000 mg of product; for Bioavailability (in words): human and animal studies
Solubility in water = conditions: RDA of calcium equals 800 mg per day in the EU
women = conditions: over 4,000 women, calcium in drinking water; cited from earlier work
[4] = cited from earlier work; remark: listed apart in the source

## CC(O)C(=O)[O-].O=C([O-])[C@H](O)[C@@H](O)[C@H](O)[C@H](O)CO.[Ca+2] [CLG, Calcium Lactate Gluconate]
[1]
  Total Ca absorbed by the body (mg): Max.
[2]
  Solubility (in words): High solubility (the most soluble forms of organic Ca)
[2]; water
  Solubility [g Ca/L water]: 52 g Ca/L water
  Solubility [g/L water]: 400 g/L water
[2]; water, listed as Calcium Lactate Gluconate
  Solubility [g/L water]: approx. 400 g/L water
[3]
  % bioavailability of Ca out of inorganic Ca: High*
  Bioavailability (in words): highly bioavailable
[3]; listed as Ca lactate gluconate
  Bioavailability (in words): Excellent bioavailability. (maintains that solubility during transit through the small intestine, during which time it is exposed to passive diffusion sites, therefore maximizing Ca absorption).
Solubility in water
  % of RDA in 100 ml: 650%

## O=C([O-])[O-].[Ca+2] [Ca Carbonate, calcium carbonate]
[1]
  Total Ca absorbed by the body: 40 mg
[3]
  % bioavailability of Ca out of inorganic Ca: 10%

## O=C([O-])CC(O)(CC(=O)[O-])C(=O)[O-].O=C([O-])CC(O)(CC(=O)[O-])C(=O)[O-].[Ca+2].[Ca+2].[Ca+2] [Ca Citrate]
[3]
  % bioavailability of Ca out of inorganic Ca: 50%

## [Ca+2] [Calcium]
[3]; healthy adults, on an average
  total calcium absorbed from a mixed diet: 10 to 30%
women
  bone density: associated with an increase in their bone density
[4]; 60 mg per liter
  Validation: risk of toxicity (in words): No risk of toxicity
[4]; Source: Expert group of vitamins & Minerals, UK - 2003
  Safe Intake level: 1500 mg
[4]; human trials
  doses that might induce some gastrointestinal side effects in some individuals: indicate that higher doses (of 2500 mg
[4]; in vivo
  supplemental Ca with no adverse effect: 1500 mg per day

## [Cu] [Copper]
[4]; in vivo
  Safe Intake level: 10 mg
  safe upper limit: limit of 10 mg/day in a 60 kg adult

## [Ca+2] [Ionic Ca (Ca^++), Ionic Ca]
[3]
  % bioavailability of Ca out of inorganic Ca: 100%

## CC(O)C(=O)[O-].CC(O)C(=O)[O-].[Ca+2] (stereo not shown) [calcium lactate]
[1]
  Total Ca absorbed by the body: 122 mg
[3]
  % bioavailability of Ca out of inorganic Ca: 33%

## calcium phosphate [Ca Phosphate]
[1]
  Total Ca absorbed by the body: 39 mg
[3]
  % bioavailability of Ca out of inorganic Ca: 10%
